Test system: A549 cells
Assay: Cell proliferation assay (CellTiter-Glo), cells with K-Ras G12S mutation
Type: cell-based
Settings: Homo sapiens, 500 nM to 5 μM (mixed units), read-out: Inhibition of A549 Cells (IC50)
Protocol: A549 (ATCC CRL-185) and LS123 (ATCC CRL-255) cell lines comprise a G12S mutation and can be used to assess Ras cellular signaling in vitro, e.g., in response to treatment with a compound described herein. A549 culture medium is prepared with RPMI-1640 and 10% heat-inactivated FBS. LS123 culture medium is prepared with RPMI-1640 and 10% heat-inactivated FBS. A CellTiter-Glo (CTG) luminescent based assay (Promega) is used to assess growth of the cells, as a measurement of the ability of the compounds herein to inhibit Ras signaling in the cells. The cells (e.g., 800 per well) are seeded in their respective culture medium in standard tissue culture-treated 384-well format plates (Falcon #08-772-116) or ultra-low attachment surface 384-well format plates (S-Bio #MS-9384WZ). The day after plating, cells are treated with a dilution series (e.g., a 10 point 3-fold dilution series) of the compounds herein (e.g., approximately 40 μl final volume per well). Cell viability can be monitored (e.g., approximately 6 days later) according to the manufacturer's recommended instructions, where CellTiter-Glo reagent is added (e.g., approximately 10 μl), vigorously mixed, covered, and placed on a plate shaker (e.g., approximately for 20 min) to ensure sufficient cell lysis prior to assessment of luminescent signal. The IC50 values are determined using the four parameter fit. The resulting IC50 value is a measurement of the ability of the test compound to reduce cell growth of Ras-driven cells (e.g., tumor cell lines) in vitro and/or in vivo.

| IC50 | SMILES |
| --- | --- |
| 500 to 5000 nM | CC1C2C(CCN2c2nc(OC[C@@]34CCCN3C[C@H](F)C4)nc3c(F)c(-c4ccc(F)c5sc(N)c(C#N)c45)c(Cl)cc23)CN1C(=O)n1cncn1 (single isomer, unassigned) [Compound 121] |
| 500 to 5000 nM | CC1CC2C(CCCN2c2nc(OC[C@@]34CCCN3C[C@H](F)C4)nc3c(F)c(-c4ccc(F)c5sc(N)c(C#N)c45)c(Cl)cc23)N1C(=O)n1cncn1 (stereo partly drawn) [Compound 113, 2-amino-4-(6-chloro-8-fluoro-2-(((2R,7aS)-2-fluorotetrahydro-1H-pyrrolizin-7a(5H)-yl)methoxy)-4-(2-methyl-1-(1H-1,2,4-triazole-1-carbonyl)octahydro-4H-pyrrolo[3,2-b]pyridin-4-yl)quinazolin-7-yl)-7-fluorobenzo[b]thiophene-3-carbonitrile] |
| 500 to 5000 nM | CN(C(=O)n1cncn1)C1CN(c2nc(OC[C@@]34CCCN3C[C@H](F)C4)nc3c(F)c(-c4ccc(F)c5sc(N)c(C#N)c45)c(Cl)cc23)CC12CC2 (stereo partly drawn) [Compound 140, N-(5-(7-(2-amino-3-cyano-7-fluorobenzo[b]thiophen-4-yl)-6-chloro-8-fluoro-2-(((2R,7aS)-2-fluorotetrahydro-1H-pyrrolizin-7a(5H)-yl)methoxy)quinazolin-4-yl)-5-azaspiro[2.4]heptan-7-yl)-N-methyl-1H-1,2,4-triazole-1-carboxamide] |

Same assay, conditions: Homo sapiens, ≤500 nM, read-out: Inhibition of A549 Cells (IC50)

| SMILES | IC50 |
| --- | --- |
| CC(C)[C@@H]1[C@H](CN(C)c2nc(OC[C@@]34CCCN3C[C@H](F)C4)nc3c(F)c(-c4ccc(F)c5sc(N)c(C#N)c45)c(Cl)cc23)CN1C(=O)n1cnc(C#N)n1 (atropisomer, axis not shown; (aS)) [Compound 162, 1-((2R,3R)-3-(((7-((R)-2-amino-3-cyano-7-fluorobenzo[b]thiophen-4-yl)-6-chloro-8-fluoro-2-(((2R,7aS)-2-fluorotetrahydro-1H-pyrrolizin-7a (5H)-yl)methoxy)quinazolin-4-yl)(methyl)amino)methyl)-2-isopropylazetidine-1-carbonyl)-1H-1,2,4-triazole-3-carbonitrile] | ≤ 500 nM |
| C[C@@H]1[C@H](N(C)C(=O)n2cnc(F)n2)CCN1c1nc(OC[C@@]23CCCN2C[C@H](F)C3)nc2c(F)c(-c3ccc(F)c4sc(N)c(C#N)c34)c(Cl)cc12 [Compound 111, N-((2R,3R)-1-(7-(2-amino-3-cyano-7-fluorobenzo[b]thiophen-4-yl)-6-chloro-8-fluoro-2-(((2R,7aS)-2-fluorotetrahydro-1H-pyrrolizin-7a(5H)-yl)methoxy)quinazolin-4-yl)-2-methylpyrrolidin-3-yl)-3-fluoro-N-methyl-1H-1,2,4-triazole-1-carboxamide] | ≤ 500 nM |
| CC(C)[C@H]1N(C(=O)n2cnc(C(F)(F)F)n2)C[C@@]12CN(c1nc(OC[C@@]34CCCN3C[C@H](F)C4)nc3c(F)c(-c4ccc(F)c5sc(N)c(C#N)c45)c(Cl)cc13)CCO2 [Compound 160, 2-amino-4-(6-chloro-8-fluoro-2-(((2R,7aS)-2-fluorotetrahydro-1H-pyrrolizin-7a(5H)-yl)methoxy)-4-((1R,4S)-1-isopropyl-2-(3-(trifluoromethyl)-1H-1,2,4-triazole-1-carbonyl)-5-oxa-2,8-diazaspiro[3.5]nonan-8-yl)quinazolin-7-yl)-7-fluorobenzo[b]thiophene-3-carbonitrile] | ≤ 500 nM |
| CC(C)[C@H]1N(C(=O)n2cncn2)C[C@]12CCCN(c1nc(OC[C@@]34CCCN3C[C@H](F)C4)nc3c(F)c(-c4ccc(F)c5sc(N)c(C#N)c45)c(Cl)cc13)C2 [Compound 118, 2-amino-4-(6-chloro-8-fluoro-2-(((2R,7aS)-2-fluorotetrahydro-1H-pyrrolizin-7a(5H)-yl)methoxy)-4-((1R,4R)-1-isopropyl-2-(1H-1,2,4-triazole-1-carbonyl)-2,6-diazaspiro[3.5]nonan-6-yl)quinazolin-7-yl)-7-fluorobenzo[b]thiophene-3-carbonitrile] | ≤ 500 nM |
| CN(C[C@@H]1CN(C(=O)n2cnc(F)n2)[C@@H]1C1(C(F)F)CC1)c1nc(OC[C@@]23CCCN2C[C@H](F)C3)nc2c(F)c(-c3ccc(F)c4sc(N)c(C#N)c34)c(Cl)cc12 [Compound 186, 2-amino-4-(6-chloro-4-((((2S,3R)-2-(1-(difluoromethyl)cyclopropyl)-1-(3-fluoro-1H-1,2,4-triazole-1-carbonyl)azetidin-3-yl)methyl)(methyl)amino)-8-fluoro-2-(((2R,7aS)-2-fluorotetrahydro-1H-pyrrolizin-7a(5H)-yl)methoxy)quinazolin-7-yl)-7-fluorobenzo[b]thiophene-3-carbonitrile] | ≤ 500 nM |
| CN(C[C@@H]1CN(C(=O)n2cnc(F)n2)[C@@H]1C1(CC#N)CC1)c1nc(OC[C@@]23CCCN2C[C@H](F)C3)nc2c(F)c(-c3ccc(F)c4sc(N)c(C#N)c34)c(Cl)cc12 [Compound 108, 2-amino-4-(6-chloro-4-((((2S,3R)-2-(1-(cyanomethyl)cyclopropyl)-1-(3-fluoro-1H-1,2,4-triazole-1-carbonyl)azetidin-3-yl)methyl)(methyl)amino)-8-fluoro-2-(((2R,7aS)-2-fluorotetrahydro-1H-pyrrolizin-7a(5H)-yl)methoxy)quinazolin-7-yl)-7-fluorobenzo[b]thiophene-3-carbonitrile] | ≤ 500 nM |
| CCN(C(=O)n1cnc(F)n1)[C@@H]1CCN(c2nc(OC[C@@]34CCCN3C[C@H](F)C4)nc3c(F)c(-c4ccc(F)c5sc(N)c(C#N)c45)c(Cl)cc23)[C@@H]1C [Compound 115, N-((2R,3R)-1-(7-(2-amino-3-cyano-7-fluorobenzo[b]thiophen-4-yl)-6-chloro-8-fluoro-2-(((2R,7aS)-2-fluorotetrahydro-1H-pyrrolizin-7a(5H)-yl)methoxy)quinazolin-4-yl)-2-methylpyrrolidin-3-yl)-N-ethyl-3-fluoro-1H-1,2,4-triazole-1-carboxamide] | ≤ 500 nM |
| CN(C(=O)n1cncn1)C1CCCN(c2nc(OC[C@@]34CCCN3C[C@H](F)C4)nc3c(F)c(-c4ccc(F)c5sc(N)c(C#N)c45)c(Cl)cc23)C1 (stereo partly drawn) [Compound 119, N-(1-(7-(2-amino-3-cyano-7-fluorobenzo[b]thiophen-4-yl)-6-chloro-8-fluoro-2-(((2R,7aS)-2-fluorotetrahydro-1H-pyrrolizin-7a(5H)-yl)methoxy)quinazolin-4-yl)piperidin-3-yl)-N-methyl-1H-1,2,4-triazole-1-carboxamide] | ≤ 500 nM |

Now from value to compound:

| IC50 | SMILES |
| --- | --- |
| ≤ 500 nM | C[C@H]1CC[C@]2(CN(C(=O)n3cnc(C(F)F)n3)[C@@H]2C2CCC2)CN1c1nc(OC[C@@]23CCCN2C[C@H](F)C3)nc2c(F)c(-c3ccc(F)c4sc(N)c(C#N)c34)c(Cl)cc12 [Compound 229, 2-amino-4-(6-chloro-4-((1R,4R,7S)-1-cyclobutyl-2-(3-(difluoromethyl)-1H-1,2,4-triazole-1-carbonyl)-7-methyl-2,6-diazaspiro[3.5]nonan-6-yl)-8-fluoro-2-(((2R,7aS)-2-fluorotetrahydro-1H-pyrrolizin-7a(5H)-yl)methoxy)quinazolin-7-yl)-7-fluorobenzo[b]thiophene-3-carbonitrile] |
| ≤ 500 nM | C[C@H]1CC[C@]2(CN(C(=O)n3cnc(Cl)n3)[C@@H]2C2CCC2)CN1c1nc(OC[C@@]23CCCN2C[C@H](F)C3)nc2c(F)c(-c3ccc(F)c4sc(N)c(C#N)c34)c(Cl)cc12 [Compound 146, 2-amino-4-(6-chloro-4-((1R,4R,7S)-2-(3-chloro-1H-1,2,4-triazole-1-carbonyl)-1-cyclobutyl-7-methyl-2,6-diazaspiro[3.5]nonan-6-yl)-8-fluoro-2-(((2R,7aS)-2-fluorotetrahydro-1H-pyrrolizin-7a(5H)-yl)methoxy)quinazolin-7-yl)-7-fluorobenzo[b]thiophene-3-carbonitrile] |
| ≤ 500 nM | CC(C)[C@H]1N(C(=O)n2cnc(F)n2)C[C@]12CC[C@H](C)N(c1nc(OC[C@@]34CCCN3C[C@H](F)C4)nc3c(F)c(-c4ccc(F)c5sc(N)c(C#N)c45)c(Cl)cc13)C2 [Compound 213, 2-amino-4-(6-chloro-8-fluoro-4-((1R,4R,7S)-2-(3-fluoro-1H-1,2,4-triazole-1-carbonyl)-1-isopropyl-7-methyl-2,6-diazaspiro[3.5]nonan-6-yl)-2-(((2R,7aS)-2-fluorotetrahydro-1H-pyrrolizin-7a(5H)-yl)methoxy)quinazolin-7-yl)-7-fluorobenzo[b]thiophene-3-carbonitrile] |
| ≤ 500 nM | CC(C)[C@H]1N(C(=O)n2cnc(F)n2)C[C@]12CCCN(c1nc(OC[C@@]34CCCN3C[C@H](F)C4)nc3c(F)c(-c4ccc(F)c5sc(N)c(C#N)c45)c(Cl)cc13)C2 [Compound 184, 2-amino-4-(6-chloro-8-fluoro-4-((1R,4R)-2-(3-fluoro-1H-1,2,4-triazole-1-carbonyl)-1-isopropyl-2,6-diazaspiro[3.5]nonan-6-yl)-2-(((2R,7aS)-2-fluorotetrahydro-1H-pyrrolizin-7a(5H)-yl)methoxy)quinazolin-7-yl)-7-fluorobenzo[b]thiophene-3-carbonitrile] |
